In US20240099996A1, “METHODS FOR TREATING CANCER” (Radius Pharmaceuticals, Inc., priority 2015, published 2024):
Structures can show the parent of a compound that is named as a salt.

Assay: Phase 1 dose escalation study in healthy post-menopausal women, treatment related AEs
Type: in vivo
Experimental: The subjects were 40-75 years old with BMI of 18.0-30 kg/m^2. Subjects having evidence of clinically relevant pathology, increased risk of stroke or of history venous thromboembolic events, or use of concomitant medication less than 14 days prior to admission to clinical research center (paracetamol allowed up to 3 days prior) were excluded. Dosing
The subjects were treated with placebo or at least one dose p.o., q.d. after a light breakfast for 7 days at dose levels of 200 mg, 500 mg, 750 mg and 1000 mg, respectively.

CCNCCc1ccc(CN(CC)c2cc(OC)ccc2[C@@H]2CCc3cc(O)ccc3C2)cc1 [RAD1901, (6R)-6-(2-(N-(4-(2-(ethylamino)ethyl)benzyl)-N-ethylamino)-4-methoxyphenyl)-5,6,7,8-tetrahydronaphthalen-2-ol dihydrochloride]
Abdominal discomfort Gr1 (200 mg, N = 15): 3 (20) n(%)
Abdominal discomfort Gr2 (200 mg, N = 15): 0 n(%)
Abdominal discomfort Gr3 (200 mg, N = 15): 0 n(%)
Abdominal distension Gr1 (200 mg, N = 15): 1 (7) n(%)
Abdominal distension Gr2 (200 mg, N = 15): 1 (7) n(%)
Abdominal distension Gr3 (200 mg, N = 15): 0 n(%)
Abdominal pain Gr1 (200 mg, N = 15): 2 (13) n(%)
Abdominal pain Gr2 (200 mg, N = 15): 2 (13) n(%)
Abdominal pain Gr3 (200 mg, N = 15): 0 n(%)
Diarrhoea Gr1 (200 mg, N = 15): 0 n(%)
Diarrhoea Gr2 (200 mg, N = 15): 0 n(%)
Diarrhoea Gr3 (200 mg, N = 15): 0 n(%)
Dizziness Gr1 (200 mg, N = 15): 1 (7) n(%)
Dizziness Gr2 (200 mg, N = 15): 0 n(%)
Dizziness Gr3 (200 mg, N = 15): 0 n(%)
Dyspepsia Gr1 (200 mg, N = 15): 3 (20) n(%)
Dyspepsia Gr2 (200 mg, N = 15): 0 n(%)
Dyspepsia Gr3 (200 mg, N = 15): 0 n(%)
Dysphagia Gr1 (200 mg, N = 15): 0 n(%)
Dysphagia Gr2 (200 mg, N = 15): 0 n(%)
Dysphagia Gr3 (200 mg, N = 15): 0 n(%)
Flatulance Gr1 (200 mg, N = 15): 2 (13) n(%)
Flatulance Gr2 (200 mg, N = 15): 0 n(%)
Flatulance Gr3 (200 mg, N = 15): 0 n(%)
Headache Gr1 (200 mg, N = 15): 3 (20) n(%)
Headache Gr2 (200 mg, N = 15): 0 n(%)
Headache Gr3 (200 mg, N = 15): 0 n(%)
Hiccups Gr1 (200 mg, N = 15): 1 (7) n(%)
Hiccups Gr2 (200 mg, N = 15): 0 n(%)
Hiccups Gr3 (200 mg, N = 15): 0 n(%)
Hot flush Gr1 (200 mg, N = 15): 2 (13) n(%)
Hot flush Gr2 (200 mg, N = 15): 0 n(%)
Hot flush Gr3 (200 mg, N = 15): 0 n(%)
Myalgia Gr1 (200 mg, N = 15): 2 (13) n(%)
Myalgia Gr2 (200 mg, N = 15): 1 (7) n(%)
Myalgia Gr3 (200 mg, N = 15): 0 n(%)
Nausea Gr1 (200 mg, N = 15): 5 (33) n(%)
Nausea Gr2 (200 mg, N = 15): 0 n(%)
Nausea Gr3 (200 mg, N = 15): 0 n(%)
Odynophagia Gr1 (200 mg, N = 15): 2 (13) n(%)
Odynophagia Gr2 (200 mg, N = 15): 0 n(%)
Odynophagia Gr3 (200 mg, N = 15): 0 n(%)
Oesophageal pain Gr1 (200 mg, N = 15): 0 n(%)
Oesophageal pain Gr2 (200 mg, N = 15): 2 (13) n(%)
Oesophageal pain Gr3 (200 mg, N = 15): 0 n(%)
Salivary hypersecretion Gr1 (200 mg, N = 15): 2 (13) n(%)
Salivary hypersecretion Gr2 (200 mg, N = 15): 0 n(%)
Salivary hypersecretion Gr3 (200 mg, N = 15): 0 n(%)
Sensation of a foreign body Gr1 (200 mg, N = 15): 2 (13) n(%)
Sensation of a foreign body Gr2 (200 mg, N = 15): 0 n(%)
Sensation of a foreign body Gr3 (200 mg, N = 15): 0 n(%)
Vomiting Gr1 (200 mg, N = 15): 2 (13) n(%)
Vomiting Gr2 (200 mg, N = 15): 0 n(%)
Vomiting Gr3 (200 mg, N = 15): 0 n(%)
Abdominal discomfort Gr1 (500 mg, N = 14): 0 n(%)
Abdominal discomfort Gr2 (500 mg, N = 14): 0 n(%)
Abdominal discomfort Gr3 (500 mg, N = 14): 0 n(%)
Abdominal distension Gr1 (500 mg, N = 14): 1 n(%)
Abdominal distension Gr2 (500 mg, N = 14): 0 n(%)
Abdominal distension Gr3 (500 mg, N = 14): 0 n(%)
Abdominal pain Gr1 (500 mg, N = 14): 3 n(%)
Abdominal pain Gr2 (500 mg, N = 14): 0 n(%)
Abdominal pain Gr3 (500 mg, N = 14): 0 n(%)
Diarrhoea Gr1 (500 mg, N = 14): 3 n(%)
Diarrhoea Gr2 (500 mg, N = 14): 0 n(%)
Diarrhoea Gr3 (500 mg, N = 14): 0 n(%)
Dizziness Gr1 (500 mg, N = 14): 2 n(%)
Dizziness Gr2 (500 mg, N = 14): 0 n(%)
Dizziness Gr3 (500 mg, N = 14): 0 n(%)
Dyspepsia Gr1 (500 mg, N = 14): 5 n(%)
Dyspepsia Gr2 (500 mg, N = 14): 2 (14) n(%)
Dyspepsia Gr3 (500 mg, N = 14): 0 n(%)
